In ChEMBL document CHEMBL1127680, “Specific inhibitors of ileal bile acid transport” (J Med Chem, 1994):

How the values were obtained:
Format in all cases: functional
Oryctolagus cuniculus [1] = organism: Oryctolagus cuniculus; experiment: The compound was evaluated for the inhibition of Na+-dependent [3H]taurocholate uptake into ileal brush border membrane vesicles in rabbit, by 75%
Oryctolagus cuniculus [2] = organism: Oryctolagus cuniculus; experiment: The compound was evaluated for the inhibition of Na+-dependent [3H]taurocholate uptake into ileal brush border membrane vesicles in rabbit, by 50%
Oryctolagus cuniculus [3] = organism: Oryctolagus cuniculus; experiment: The compound was evaluated for the inhibition of Na+-dependent [3H]taurocholate uptake into ileal brush border membrane vesicles in rabbit, by 25%
Rattus norvegicus [4] = experiment: The compound was evaluated for the percentage inhibition of ileal taurocholate transport, in anesthetized wistar rats at 12 min
Rattus norvegicus [5] = experiment: The compound was evaluated for the percentage inhibition of ileal taurocholate transport, in anesthetized wistar rats at 30 min
Rattus norvegicus [6] = experiment: The compound was evaluated for the percentage inhibition of ileal taurocholate transport, in anesthetized wistar rats at 60 min
Oryctolagus cuniculus [7] = organism: Oryctolagus cuniculus; experiment: The compound was evaluated for the inhibition of Na+-dependent [3H]taurocholate uptake into ileal brush border membrane vesicles in rabbit; by 75%
Oryctolagus cuniculus [8] = organism: Oryctolagus cuniculus; experiment: The compound was evaluated for the inhibition of Na+ dependent [3H]taurocholate uptake into ileal brush border membrane vesicles in rabbit; by 25%
Oryctolagus cuniculus [9] = organism: Oryctolagus cuniculus; experiment: The compound was evaluated for the inhibition of Na+-dependent [3H]taurocholate uptake into ileal brush border membrane vesicles in rabbit; by 50%
Rattus norvegicus [10] = experiment: The compound was evaluated for the percentage inhibition of ileal taurocholate transport; in anesthetized wistar rats at 12 min

| SMILES | IC75 (Oryctolagus cuniculus [1]) | IC50 (Oryctolagus cuniculus [2]) | IC25 (Oryctolagus cuniculus [3]) | Inhibition (Rattus norvegicus [4]) | Inhibition (Rattus norvegicus [5]) | Inhibition (Rattus norvegicus [6]) | IC75 (Oryctolagus cuniculus [7]) | IC25 (Oryctolagus cuniculus [8]) | IC50 (Oryctolagus cuniculus [9]) | Inhibition (Rattus norvegicus [10]) |
| --- | --- | --- | --- | --- | --- | --- | --- | --- | --- | --- |
| CC(CCC(=O)O)C1CC[C@H]2[C@@H]3[C@H](O)C[C@@H]4C[C@@H](OCCNC(=O)CCC(C)C5CC[C@H]6[C@@H]7CC[C@@H]8C[C@H](O)CC[C@]8(C)[C@H]7CC[C@]56C)CC[C@]4(C)[C@H]3C[C@H](O)[C@]12C (stereo partly specified) | > 250 µM | > 250 µM | 154 µM |  |  |  |  |  |  |  |
| C[C@H](CCC(=O)NCCS(=O)(=O)O)[C@H]1CC[C@H]2[C@@H]3[C@H](O)C[C@@H]4C[C@H](O)CC[C@]4(C)[C@H]3CC[C@]12C | 61 µM |  | 13 µM |  |  |  |  |  |  |  |
| CC(CCC(=O)N[C@H]1CC[C@@]2(C)[C@@H](C1)C[C@@H](O)[C@@H]1[C@@H]2C[C@H](O)[C@]2(C)C(C(C)CCC(=O)O)CC[C@@H]12)C1CC[C@H]2[C@@H]3[C@H](O)C[C@@H]4C[C@H](O)CC[C@]4(C)[C@H]3C[C@H](O)[C@]12C (stereo partly specified) | 84 µM | 48 µM | 24 µM | 51% | 59% | 54% |  |  |  |  |
| CC(CCC(=O)O)C1CC[C@H]2[C@@H]3[C@H](O)C[C@@H]4C[C@@H](NC(=O)CCC(C)C5CC[C@H]6[C@@H]7CC[C@@H]8C[C@H](O)CC[C@]8(C)[C@H]7CC[C@]56C)CC[C@]4(C)[C@H]3C[C@H](O)[C@]12C (stereo partly specified) | > 250 µM | > 250 µM | 176 µM |  |  |  |  |  |  |  |
| CC(CCC(=O)O)C1CC[C@H]2[C@@H]3[C@H](O)C[C@@H]4C[C@@H](OCCNC(=O)CCC(C)C5CC[C@H]6[C@@H]7[C@H](O)C[C@@H]8C[C@H](OC(c9ccccc9)c9ccccc9)CC[C@]8(C)[C@H]7C[C@H](O)[C@]56C)CC[C@]4(C)[C@H]3C[C@H](O)[C@]12C (stereo partly specified) | > 250 µM | > 250 µM | 125 µM |  |  |  |  |  |  |  |
| CC(CCC(=O)O)C1CC[C@H]2[C@@H]3[C@H](O)C[C@@H]4C[C@@H](OCCNC(=O)CCC(=O)NCCCNC(=O)CCC(C)C5CC[C@H]6[C@@H]7[C@H](O)C[C@@H]8C[C@H](OC(c9ccccc9)c9ccccc9)CC[C@]8(C)[C@H]7C[C@H](O)[C@]56C)CC[C@]4(C)[C@H]3C[C@H](O)[C@]12C (stereo partly specified) | 30 µM | 19 µM | 9 µM | 26% | 16% | 10% |  |  |  |  |
| CC(CCC(=O)NCCO[C@H]1CC[C@@]2(C)[C@@H](C1)C[C@@H](O)[C@@H]1[C@@H]2C[C@H](O)[C@]2(C)C(C(C)CCC(=O)O)CC[C@@H]12)C1CC[C@H]2[C@@H]3[C@H](O)C[C@@H]4C[C@H](O)CC[C@]4(C)[C@H]3C[C@H](O)[C@]12C (stereo partly specified) |  |  |  |  | 23% | 18% | 57 µM | 20 µM | 36 µM | 23% |
| C[C@H](CCC(=O)O)[C@H]1CC[C@H]2[C@@H]3[C@H](O)C[C@@H]4C[C@H](O)CC[C@]4(C)[C@H]3C[C@H](O)[C@]12C | 152 µM |  | 40 µM |  |  |  |  |  |  |  |
